In test [1] the test system is EMG in B6 mice immunized with TAChR. Briefly: Nasal tolerization, EMG symptoms by pancuronium-sensitized inverted hang test (Example I). In kind it is in vivo, mouse. How it is done: Mice and Induction of Tolerance. B6 mice were purchased from Jackson Laboratory (Bar Harbor, Me.) and housed at the animal facility of the University of Minnesota. After light anesthesia by i.m. injection of Ketaset (100 mg/kg; Alveco Co., Inc., Fort Dodge, Iowa), the mice received into both nostrils a total of 25 μl of PBS containing 50 μg of peptide Tα150-169, either alone or pooled with equimolar amounts of peptides Tα180-200 and Tα360-378 (referred to as “peptide pool” or “αpool” ). The dose was based on the results of an experiment in which increasing amounts of peptide α150-169 were used (50 μg, 100 μg, 200 μg, 400 μg and 800 μg). […] The tolerogen was administered as a solution instilled into the nostrils, a method of delivery which allowed accurate administration of a defined amount of solution.
In protocol A, peptides or peptide-free PBS were administered two weeks before the first TAChR immunization, and then three more times, on the same day as the three immunizations with TAChR (at one month intervals, see below). In protocol B, peptides or peptide-free PBS were administered weekly, starting two weeks before beginning of the immunization with TAChR, for a total of 14 treatments (two before and 12 during TAChR immunization).
Immunization. Eight-ten week old mice were immunized by subcutaneous injections, along the back and at the base of the tail, with solubilized TAChR (50 μg), peptide Tα150-169 (100 μg), or the peptide pool (100 μg of each peptide). The mice were boosted twice at 4 week intervals with the same amouni of antigen. The antigen solutions (in 100 μl PBS) were emulsified with an equal volume of complete Freund's adjuvant (FA) for the first injection, and with incomplete FA for the boosts. Control mice were injected with PBS emulsified in the appropriate adjuvant.
Evaluation of the Clinical Symptoms of EMG. EMG symptoms were quantified by a forced exercise using the inverted hang technique, sensitized by administration of a minute amount of pancuronium bromide (0-03 mg/kg i.p.) just prior to the beginning of the test (Karachunski et al., 1995). The mice hang from a grid, and the time it takes for the mouse to release its hold and fall three times (“holding time”) was measured. The test was performed on the day of the first nasal administration, on the day before each immunization, and 7-14 days after the third immunization, just before sacrificing the animal. This test is parametric, and gives a quantitative assessment of the severity of the weakness.
The holding time of normal mice was 10.4±2.1 minutes (n=99). […]

Another test relates to serum anti-TAChR Ab. Briefly: Anti-TAChR IgG and IgG1 radioimmunoprecipitation assay (Example IV). The test is classed as in vivo, mouse. Here is the method: Anti-TAChR Ab assay. Sera was obtained from each mouse after each clinical testing and at the end of the observation period (12 weeks after beginning of the TAChR immunization). The serum concentration of anti-TAChR IgG and IgGI was determined by radioimmunoprecipitation assay, using TAChR solubilized in Triton X-100 and labeled by the binding of ^125I-α-BTX (Bellone et al., 1991a). As a secondary Ab, either rabbit anti-mouse IgG produced, or goat anti-mouse IgG1 (Sigma, St. Louis, Mo.), was used. The anti-TAChR Ab concentration is expressed as μM precipitated ^125I-α-BTX binding sites.
Two types of experiments were carried out. In one of them the total anti-TAChR Ab in the sera of individual mice, obtained 8, 10 and 12 weeks after the first TAChR immunization, was determined. In the other, the anti-TAChR IgG1 concentration was determined, as well as the total anti-TAChR IgG concentration, in sera obtained at the end of the observation period. For this second assay pooled sera from five mice that had received identical treatments was used.

Test [2] deals with CD8+ depleted spleen cells. Briefly: Cytokine secretion in response to TAChR by CD8+ depleted spleen cells (Example IV). As to conditions: s.c. 200 μg/injection, 72 hours. The test is classed as cell-based, mouse. How it is done:
Cytokine secretion in response to TAChR by spleen CD4^+ cells in vitro. Five to seven days after the last immunization, spleen cells of three identically treated mice were pooled, and depleted them of CD8^+ cells using paramagnetic beads and rat anti-mouse CD8^+ Ab (Pharmingen, San Diego, Calif.), following the manufacturer's instructions. The CD8^+ depleted, CD4^+ enriched cells were cultured with 10 μg/ml TAChR, or without any stimulus. 24 well plates were used, and duplicate cultures prepared. The supernatants were harvested after 72 hours, and the concentrations of IFN-γ, IL-4 and IL-10 determined in duplicate samples by capture ELISA using anti-INF-γ, anti-IL-4, anti-IL-10 Ab, and recombinant INF-γ, IL-4 and IL-10 (Pharmingen) as standards, and following the manufacturer's instructions.

Setting [3] is: s.c. 200 μg, pooled sera of five mice.

Several values for one entry are separate records, joined by “and”; a condition that tells them apart may be missing. Identical values can stand only once.

For “peptide Tα150-169: synthetic peptide corresponding to residues 150-169 of the TAChR α subunit (TYDGTKVSISPESDRPDLST; UniProt P02710 174-193, looked up, fragment)”, in test [1] (nasal protocol A (monthly), TAChR-immunized B6 mice), the “mice that developed EMG” value worked out at 42%. For the same substance, the “mice with detectable weakness” value in test [1] (nasal protocol B (weekly), TAChR-immunized B6 mice) is recorded as “none”. Also, the “protection from EMG, dose finding” value in test [1] (nasal, lowest dose 50 μg of 50-800 μg) is “satisfactory level of protection”. The “holding time compared with sham-tolerized mice” value in test [1] (nasal, protocols A and B) is given as “significantly longer holding times”. The “reduction of anti-TAChR IgG1” value in the test with serum anti-TAChR Ab (200 μg, p<0.008) is “very modest reduction”. For the same substance, the “anti-TAChR Ab concentrations compared with sham-treated groups” value with serum anti-TAChR Ab (at 12 weeks, s.c. prevention protocol) was “significantly and substantially lower”. Moreover, in the test with serum anti-TAChR Ab (setting [3]), the “IgG1 anti-TAChR” value is 0.22 ± 0.005 µM and 0.27 ± 0.01 µM; the “Total IgG anti-TAChR” value is 0.47 ± 0.01 µM and 0.28 ± 0.015 µM. In addition, in test [2], the “TAChR-induced IFN-γ secretion” value is “did not cause increased”, the “TAChR-induced IL-4 secretion” value is “significant increase” and the “TAChR-induced IL-10 secretion” value is reported as “in one of the two cultures tested”.

(Values after patent publication US6759385B1, “Methods to treat undesirable immune responses” (Regents of the University of Minnesota, priority 1997, dated 2004).)
